Measured values from article PMC4552634, “A New Set of Chemical Starting Points with Plasmodium falciparum Transmission-Blocking Potential for Antimalarial Drug Discovery” (PLoS ONE, 2015).
Where two headings read alike, the source gives them in different places.

Key:
[1] = tested on: luciferase reaction (BacTiter-Glo); test: Interference assay (inhibition of the BacTiter-Glo luciferase reaction); type: biochemical; set-up: concentration or dose not given beside the values; conditions: ATP interference assay
Experimental: To discard possible false-positive results, we performed an interference assay in parallel. […] […]. The ATP solution was made by dissolving ATP powder (ATP standard from the ATPlite 1 step assay kit, reference 6016731, Perkin Elmer) in culture medium. The positive control used was the Luciferase Inhibitor I Calbiochem (Merck, 119113) at 100 μM.

HepG2 cells = test: Cytotoxicity in HepG2 cells (intracellular ATP, ATPlite, 48 h); type: cell-based, human; conditions: IC50 HepG2 divided by IC50 P. falciparum gametocytes
[2] = as above; type: cell-based, human; conditions: human, HepG2 cells
[3] = tested on: P. falciparum stage V gametocytes; test: Gametocytocidal ATP bioluminescence assay (single point 5 μM and 1 μM, dose-response); type: cell-based, Plasmodium falciparum; conditions: for Ratio IC50 HepG2/IC50 P. falciparum: IC50 HepG2 divided by IC50 P. falciparum gametocytes
Experimental: Purified stage IV-V gametocytes were obtained as previously described [10]. Single point ATP bioluminescence assay and dose–response of positive hits was determined in accordance with the previously published protocol [10].

[4] = tested on: P. falciparum asexual stages; conditions: TCAMS data, cited from earlier work
[5] = HepG2, 48 h exposure, intracellular ATP, read-out: IC50 (μM) Cytotoxicity HepG2
[6] = IC50 per ratio column head, unit inferred, read-out: Cytotoxicity in HepG2
[7] = Plasmodium falciparum, P. falciparum gametocytes, average, read-out: IC50 Pf Gametocytes average, IC50 (µM) average
[8] = Plasmodium falciparum, sexual stages (gametocytes), dose-response, read-out: IC50 sexual
[9] = P. falciparum asexual stages, read-out: IC50 (µM) Pf asexual stages
[10] = asexual stages, read-out: IC50 asexual
[11] = sexual stages (gametocytes), dose-response, read-out: IC50 sexual

| Compound | % Control luminiscence [1] [%] | Ratio IC50 HepG2/IC50 P. falciparum (HepG2 cells) | IC50 at 48 h [2, 5] [µM] | IC50 at 48 h [2, 6] [µM] | Ratio IC50 HepG2/IC50 P. falciparum [3] | IC50 [3, 7] [µM] | IC50 [3, 8] [µM] | IC50 [4, 9] [µM] | IC50 [4, 10] [µM] | IC50 ([3]; Plasmodium falciparum, gametocytes (S9 Table), read-out: pIC50game (converted)) [µM] | inhibition at 5 µM ([3]; Plasmodium falciparum, gametocytes, primary screen at 5 μM (S9 Table, CSA analogs)) [%] | IC50 [3, 11] [µM] |
| --- | --- | --- | --- | --- | --- | --- | --- | --- | --- | --- | --- | --- |
| Fc1ccc2[nH]c(-c3cccc(-c4cccc(CNCCN5CCNCC5)c4)c3)nc2c1 [TCMDC-132860] | 100 | 27 | 20 | 19.6 | 27 | 0.74 | 0.737 | 0.84 | 0.842 |  |  |  |
| Fc1ccc2[nH]c(-c3cccc(-c4ccc(CNCCN5CCNCC5)cc4)c3)nc2c1 [TCMDC-132863] | 100 | 17 | 24 | 24.2 | 17 | 1.45 | 1.45 | 0.9 | 0.904 |  |  |  |
| Cc1cccc2nc(-c3ccc(-c4cccc(CNCCN5CCNCC5)c4)cc3)[nH]c12 [TCMDC-132867] | 100 | 16 | 13 | 13.4 | 16 | 0.84 |  | 1.23 | 1.23 |  |  |  |
| Fc1ccc2[nH]c(-c3ccc(-c4ccc(CNCCN5CCNCC5)cc4)s3)nc2c1 [TCMDC-132869] | 100 | >47 |  | > 25 | >47 | 0.53 |  | 0.78 | 0.779 | 0.53 | 101 |  |
| FC(F)(F)c1ccc2[nH]c(-c3cccc(-c4ccc(CNCCN5CCNCC5)cc4)c3)nc2c1 [TCMDC-132872] | 100 | 15 | 13 | 12.6 | 15 | 0.86 |  | 0.86 | 0.862 |  |  |  |
| c1cc(CN2CCC(CCN3CCCCC3)CC2)cc(-c2cccc(-c3nc4ccccc4[nH]3)c2)c1 [TCMDC-133920] | 100 | 45 | 13 | 13.1 | 45 | 0.29 | 0.293 |  | 0.14 |  |  |  |
| Cc1n[nH]c2ccc(-c3ccc4nccc(N5CCC(N)CC5)c4c3)cc12 [TCMDC-134315] | 100 | 30 | 12 | 11.7 | 30 | 0.38 | 0.383 | 0.59 | 0.591 |  |  |  |
| COc1cccc(Nc2c(C(N)=O)cnc3ccc(-c4ccc([S+](C)[O-])cc4)cc23)c1 (centres unmarked) [TCMDC-135184] | 100 | >18 |  | > 25 | >18 | 1.43 | 1.43 | 0.19 | 0.186 |  |  |  |
| COc1cc(NC(=O)c2sc(-c3ccc(Cl)cc3)cc2NC(=O)c2cccnc2)ccc1OCCN1CCCC1 [TCMDC-135397] | 100 | >41 |  | > 25 | >41 | 0.61 |  |  | 0.38 |  |  | 0.613 |
| Cc1ccc(-n2c(C)nc3c(Nc4ccc(-c5ccncc5)cc4)ncnc32)c(C)c1 [TCMDC-136289] | 100 | >47 |  | > 25 | >47 | 0.53 |  |  | 0.101 |  |  | 0.533 |
| CCn1ncc2c(NC3CCOCC3)c(CNC(=O)c3ccnn3C)c(C)nc21 [TCMDC-136560] | 100 | >15 |  | > 25 | >15 | 1.64 | 1.64 | 0.53 | 0.533 |  |  |  |
| COc1ccc(Nc2nccc(-c3ccc4ccnc(NCCCCN)c4c3)n2)cc1 [TCMDC-136642] | 99 | >77 |  | > 25 | >77 | 0.33 | 0.327 |  | 0.75 |  |  |  |
| CN(C)CCNC(=O)c1ccc(-c2cnc3ccc(NCc4ccc(Cl)c(Cl)c4)nn23)cc1 [TCMDC-136678] | 100 | 50 | 17 | 16.7 | 50 | 0.33 | 0.333 | 0.91 | 0.913 |  |  |  |
| Ic1cc(CNC2CCCCC2)ccc1OCc1cccc(COc2ccc(CNC3CCCCC3)cc2I)c1 [TCMDC-137261] | 100 | >75 |  | > 25 | >75 | 0.33 |  |  | 0.829 |  |  | 0.333 |
| C/C=C/C=C/C1=NCCc2cc(OCCC)ccc21 [TCMDC-137442] | 100 | 25 |  | 19 | 25 | 0.75 | 0.747 | 0.91 | 0.914 |  |  |  |
| COc1ccc2nc3cc(Cl)ccc3c(NCCN3CCN(C)CC3)c2c1 [TCMDC-137476] | 100 | 10 | 19 | 19.3 | 10 | 1.88 | 1.88 | 0.12 | 0.124 |  |  |  |
| CCCCN1CCN(CCCCNc2c3ccccc3nc3ccccc23)CC1 [TCMDC-137569] | 100 | 11 | 13 | 12.7 | 11 | 1.19 |  | 0.17 | 0.167 |  |  |  |
| COCCCNC(=S)NN=C(C)c1ccccn1 [TCMDC-137907] | 100 | 106 |  | 17 | 106 | 0.16 |  | 0.3 | 0.296 |  |  |  |
| c1ccc2c(NCCCCCCNc3ccnc4ccccc34)ccnc2c1 [TCMDC-137913] | 100 | 17 |  | 16.4 | 17 | 0.96 |  |  | 0.191 |  |  | 0.963 |
| COc1ccc2nc3cc(Cl)ccc3c(NCCCCNc3c4ccc(Cl)cc4nc4ccc(OC)cc34)c2c1 [TCMDC-138218] | 100 | 72 |  | 14.5 | 72 | 0.2 |  |  | 0.16 |  |  |  |
